Measurements: publication PMC12557437, “Research towards selective inhibition of the CLK3 kinase” (Beilstein Journal of Organic Chemistry, 2025)
Where “and” joins values, the source holds several entries; their conditions need not be identical. Identical values can stand only once.

Tests used:
[1] = tested on: CLK1; conditions: human protein kinase; ref 17 (SM08502), 19 (T3), 20-21 (CX-4945), 24 (DB18); cited from earlier work
[2] = tested on: CLK2; conditions: human protein kinase; ref 17 (SM08502), 19 (T3), 20-21 (CX-4945), 24 (DB18); cited from earlier work
[3] = tested on: CLK3; conditions: human protein kinase; ref 17 (SM08502), 19 (T3), 20-21 (CX-4945), 24 (DB18); cited from earlier work
[4] = tested on: CLK4; conditions: human protein kinase; ref 17 (SM08502), 20-21 (CX-4945), 24 (DB18); cited from earlier work
[5] = tested on: DYRK1A; conditions: human protein kinase; ref 17 (SM08502), 19 (T3), 20-21 (CX-4945), 24 (DB18); cited from earlier work
[6] = molecular target: Hs_CDK5/p25 (Homo sapiens, UniProt Q00535); assay: primary screening, short panel of mammalian kinases; assay type: biochemical; conditions: ATP 10 µM, means, n = 2, read-out: Residual kinase activity Hs_CDK5/p25; for remaining activity at 1 µM: compound 1 μM; for remaining activity at 10 µM: compound 10 μM
Description: (§1) Our molecules have been submitted first to a primary screening against a panel of eight disease-related kinases: five members of the CMGC (for CDK, MAPK, GSK3, and CLK) group (CDK5/p25, CDK9/CyclinT, GSK3β, CLK1 and DYRK1A), one CAMK (calmodulin/calcium regulated kinase PIM1), one CK1 (the casein kinase CK1ε), and haspin as a […] kinase.
(§2) Figure 4 Primary evaluation of the inhibition of the new quinazolines against a short panel of mammalian kinases. Residual kinase activities are expressed in % of maximal activity, i.e., measured in the absence of inhibitor but with an equivalent dose of DMSO (solvent of the tested compounds). ATP concentration used in the kinase assays was 10 µM (values are means, n = 2). Kinases are from human origin (Homo sapiens) except CLK1 (from Mus musculus) and DYRK1A (from Rattus norvegicus). […]

[7] = molecular target: Hs_CDK9/CyclinT (Homo sapiens, UniProt P50750); assay: as above; assay type: biochemical; conditions: ATP 10 µM, means, n = 2, read-out: Residual kinase activity Hs_CDK9/CyclinT; for remaining activity at 1 µM: compound 1 μM; for remaining activity at 10 µM: compound 10 μM
Description: as §1, §2

[8] = molecular target: Hs_CK1ε (Homo sapiens, UniProt P49674); assay: as above; assay type: biochemical; conditions: ATP 10 µM, means, n = 2, read-out: Residual kinase activity Hs_CK1ε; for remaining activity at 1 µM: compound 1 μM; for remaining activity at 10 µM: compound 10 μM
Description: as §1, §2

[9] = molecular target: Hs_GSK3β (Homo sapiens, UniProt P49841); assay: as above; assay type: biochemical; conditions: ATP 10 µM, means, n = 2, read-out: Residual kinase activity Hs_GSK3β; for remaining activity at 1 µM: compound 1 μM; for remaining activity at 10 µM: compound 10 μM
Description: as §1, §2

[10] = molecular target: T1, Hs_HASPIN (Homo sapiens, UniProt Q8TF76); assay: as above; assay type: biochemical; conditions: ATP 10 µM, means, n = 2, read-out: Residual kinase activity Hs_HASPIN; for remaining activity at 1 µM: compound 1 μM; for remaining activity at 10 µM: compound 10 μM
T1 sequence (Q8TF76 1-798): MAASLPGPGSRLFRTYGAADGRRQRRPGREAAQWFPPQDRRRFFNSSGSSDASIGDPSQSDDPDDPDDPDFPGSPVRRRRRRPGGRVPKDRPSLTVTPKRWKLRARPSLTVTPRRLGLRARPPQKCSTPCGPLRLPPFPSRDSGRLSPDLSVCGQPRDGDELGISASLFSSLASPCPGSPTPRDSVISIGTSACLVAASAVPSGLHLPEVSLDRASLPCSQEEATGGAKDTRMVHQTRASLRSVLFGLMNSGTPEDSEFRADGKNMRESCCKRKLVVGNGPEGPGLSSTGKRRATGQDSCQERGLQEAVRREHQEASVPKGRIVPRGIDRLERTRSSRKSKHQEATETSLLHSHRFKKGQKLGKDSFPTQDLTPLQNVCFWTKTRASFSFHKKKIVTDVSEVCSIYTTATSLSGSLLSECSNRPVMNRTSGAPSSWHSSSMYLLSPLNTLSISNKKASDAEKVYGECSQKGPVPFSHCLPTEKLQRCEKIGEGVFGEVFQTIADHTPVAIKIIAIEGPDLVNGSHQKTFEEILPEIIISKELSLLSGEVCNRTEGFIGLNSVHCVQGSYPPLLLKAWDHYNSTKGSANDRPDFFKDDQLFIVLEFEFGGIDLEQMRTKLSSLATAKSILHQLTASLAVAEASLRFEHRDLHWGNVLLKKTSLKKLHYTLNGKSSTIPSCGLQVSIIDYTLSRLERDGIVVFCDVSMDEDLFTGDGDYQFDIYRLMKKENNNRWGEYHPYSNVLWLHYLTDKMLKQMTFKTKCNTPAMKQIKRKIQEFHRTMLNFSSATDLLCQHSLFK
Description: as §1, §2

[11] = molecular target: Hs_PIM1 (Homo sapiens, UniProt P11309); assay: as above; assay type: biochemical; conditions: ATP 10 µM, means, n = 2, read-out: Residual kinase activity Hs_PIM1; for remaining activity at 1 µM: compound 1 μM; for remaining activity at 10 µM: compound 10 μM
Description: as §1, §2

[12] = molecular target: T2, Mm_CLK1 (Mus musculus, UniProt P22518); assay: as above; assay type: biochemical; conditions: for remaining activity at 1 µM: compound 1 μM; for remaining activity at 1 µM / remaining activity at 10 µM: ATP 10 µM, means, n = 2, read-out: Residual kinase activity Mm_CLK1; for remaining activity at 10 µM: compound 10 μM; for activity against CLK1 in primary screening: 1 and 10 µM
Description: as §1, §2

[13] = molecular target: Rn_DYRK1A (Rattus norvegicus, UniProt Q63470); assay: as above; assay type: biochemical; conditions: ATP 10 µM, means, n = 2, read-out: Residual kinase activity Rn_DYRK1A; for remaining activity at 1 µM: compound 1 μM; for remaining activity at 10 µM: compound 10 μM
Description: as §1, §2

[14] = molecular target: T2, Mm_CLK1; assay: radiometric γ33P-ATP kinase assay (Eurofins); assay type: biochemical; conditions: for IC50: 15 µM ATP, dose-response, points in duplicate; for Mm_CLK3/Mm_CLK1: ratio of IC50 values
Protocol: (§3) The results are reported in Table 2 and in Supporting Information File 1.
(§4) 2- Kinase inhibition studies
(§5) Kinase enzymatic activities were assayed using both luminescent ADP detection assay
(§6) (ADP-GloTM assay kit, Promega, Madison, WI) or radiometric kinase assay. These
(§7) assays were performed using the protocols described in our previous publication. […]
(§8) 1.Brahmaiah, D.; Kanaka Durga Bhavani, A.; Aparna, P.; Sampath Kumar, N.; Solhi,
(§9) H.; Le Guevel, R.; Baratte, B.; Ruchaud, S.; Bach, S.; Singh Jadav, S.; Raji Reddy, C.;
(§10) Roisnel, T.; Mosset, P.; Levoin, N.; Grée, R. Bioorg.
(§11) R.; Baratte, B.; Robert, T.; Ruchaud, S.; Bach, S.; Jadav, S. S.; Reddy, C. […]

[15] = molecular target: Mm_CLK2 (Mus musculus, UniProt O35491); assay: radiometric γ33P-ATP kinase assay (Eurofins); assay type: biochemical; conditions: for IC50: 15 µM ATP, dose-response, points in duplicate; for Mm_CLK3/Mm_CLK2: ratio of IC50 values
Protocol: as §3, §4, §5, §6, §7, §8, §9, §10, §11

[16] = molecular target: Mm_CLK4 (Mus musculus, UniProt O35493); assay: radiometric γ33P-ATP kinase assay (Eurofins); assay type: biochemical; conditions: for IC50: 15 µM ATP, dose-response, points in duplicate; for Mm_CLK3/Mm_CLK4: ratio of IC50 values
Protocol: as §3, §4, §5, §6, §7, §8, §9, §10, §11

[17] = molecular target: Mm_CLK3 (Mus musculus, UniProt O35492); assay: radiometric γ33P-ATP kinase assay (Eurofins); assay type: biochemical; conditions: 15 µM ATP; dose-response, points in duplicate
Protocol: as §3, §4, §5, §6, §7, §8, §9, §10
R.; Baratte, B.; Robert, T.; Ruchaud, S.; Bach, S.; Jadav, S. S.; Reddy, C. R.; Mosset,
P.; Gouault, N.; Levoin, N.; Grée, R. Molecules 2022, 27, 6149. […]

T2 sequence (P22518 whole entry): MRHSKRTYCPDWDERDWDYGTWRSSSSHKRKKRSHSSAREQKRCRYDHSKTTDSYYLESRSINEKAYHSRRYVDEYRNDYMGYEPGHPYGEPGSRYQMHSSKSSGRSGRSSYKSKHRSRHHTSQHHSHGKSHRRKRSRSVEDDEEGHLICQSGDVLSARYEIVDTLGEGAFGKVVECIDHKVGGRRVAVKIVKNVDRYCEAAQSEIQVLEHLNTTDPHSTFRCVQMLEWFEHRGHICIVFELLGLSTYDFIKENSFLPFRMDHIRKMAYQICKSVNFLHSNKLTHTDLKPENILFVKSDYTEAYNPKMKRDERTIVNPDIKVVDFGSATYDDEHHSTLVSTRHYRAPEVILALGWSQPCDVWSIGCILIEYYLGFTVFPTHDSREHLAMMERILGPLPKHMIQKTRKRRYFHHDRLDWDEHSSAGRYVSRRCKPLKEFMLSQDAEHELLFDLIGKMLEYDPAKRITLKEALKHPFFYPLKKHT
Sequence of Hs_GSK3β (P49841 whole entry): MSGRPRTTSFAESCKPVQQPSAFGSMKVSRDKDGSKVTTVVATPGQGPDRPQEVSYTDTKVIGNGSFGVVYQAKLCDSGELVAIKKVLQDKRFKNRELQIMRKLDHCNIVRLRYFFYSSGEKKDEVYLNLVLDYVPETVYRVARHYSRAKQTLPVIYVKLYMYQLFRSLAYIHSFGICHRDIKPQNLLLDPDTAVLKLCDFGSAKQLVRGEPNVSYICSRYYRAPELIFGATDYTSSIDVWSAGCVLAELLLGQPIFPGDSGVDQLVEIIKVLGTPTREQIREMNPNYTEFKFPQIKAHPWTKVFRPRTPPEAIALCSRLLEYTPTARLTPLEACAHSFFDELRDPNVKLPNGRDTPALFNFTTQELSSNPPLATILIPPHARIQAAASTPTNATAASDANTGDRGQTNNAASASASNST
Sequence of Mm_CLK4 (O35493 whole entry): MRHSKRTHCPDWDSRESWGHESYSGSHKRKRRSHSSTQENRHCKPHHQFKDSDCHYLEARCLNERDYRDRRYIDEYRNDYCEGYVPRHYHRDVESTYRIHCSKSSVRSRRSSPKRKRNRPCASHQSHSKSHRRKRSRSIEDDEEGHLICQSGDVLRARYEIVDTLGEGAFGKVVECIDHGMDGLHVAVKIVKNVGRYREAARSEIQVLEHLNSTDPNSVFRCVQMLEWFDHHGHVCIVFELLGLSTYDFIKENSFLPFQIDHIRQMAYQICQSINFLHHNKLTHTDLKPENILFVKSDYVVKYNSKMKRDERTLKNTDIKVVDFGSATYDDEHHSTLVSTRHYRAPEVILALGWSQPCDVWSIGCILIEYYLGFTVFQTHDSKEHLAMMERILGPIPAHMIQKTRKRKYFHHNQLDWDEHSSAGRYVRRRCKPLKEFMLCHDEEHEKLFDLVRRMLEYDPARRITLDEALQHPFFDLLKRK
Sequence of Hs_PIM1 (P11309 whole entry): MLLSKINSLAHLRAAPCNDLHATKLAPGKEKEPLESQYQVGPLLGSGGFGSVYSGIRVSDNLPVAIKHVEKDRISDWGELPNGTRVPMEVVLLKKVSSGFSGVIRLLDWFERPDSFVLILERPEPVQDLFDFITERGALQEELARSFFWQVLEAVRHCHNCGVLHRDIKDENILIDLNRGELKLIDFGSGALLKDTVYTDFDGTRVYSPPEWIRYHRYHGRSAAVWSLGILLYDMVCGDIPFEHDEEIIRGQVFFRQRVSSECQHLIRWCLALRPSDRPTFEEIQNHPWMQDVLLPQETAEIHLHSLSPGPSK
Sequence of Hs_CK1ε (P49674 whole entry): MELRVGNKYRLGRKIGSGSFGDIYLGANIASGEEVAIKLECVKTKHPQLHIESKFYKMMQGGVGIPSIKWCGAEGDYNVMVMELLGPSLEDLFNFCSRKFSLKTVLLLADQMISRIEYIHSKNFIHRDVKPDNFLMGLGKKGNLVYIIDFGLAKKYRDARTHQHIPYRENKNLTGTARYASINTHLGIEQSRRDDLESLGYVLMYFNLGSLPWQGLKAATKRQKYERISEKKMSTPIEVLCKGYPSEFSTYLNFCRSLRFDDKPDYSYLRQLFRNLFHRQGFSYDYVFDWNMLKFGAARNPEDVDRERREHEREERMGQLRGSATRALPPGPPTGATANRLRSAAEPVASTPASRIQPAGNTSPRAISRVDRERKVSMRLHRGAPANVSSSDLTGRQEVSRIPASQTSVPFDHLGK
Sequence of Mm_CLK3 (O35492 whole entry): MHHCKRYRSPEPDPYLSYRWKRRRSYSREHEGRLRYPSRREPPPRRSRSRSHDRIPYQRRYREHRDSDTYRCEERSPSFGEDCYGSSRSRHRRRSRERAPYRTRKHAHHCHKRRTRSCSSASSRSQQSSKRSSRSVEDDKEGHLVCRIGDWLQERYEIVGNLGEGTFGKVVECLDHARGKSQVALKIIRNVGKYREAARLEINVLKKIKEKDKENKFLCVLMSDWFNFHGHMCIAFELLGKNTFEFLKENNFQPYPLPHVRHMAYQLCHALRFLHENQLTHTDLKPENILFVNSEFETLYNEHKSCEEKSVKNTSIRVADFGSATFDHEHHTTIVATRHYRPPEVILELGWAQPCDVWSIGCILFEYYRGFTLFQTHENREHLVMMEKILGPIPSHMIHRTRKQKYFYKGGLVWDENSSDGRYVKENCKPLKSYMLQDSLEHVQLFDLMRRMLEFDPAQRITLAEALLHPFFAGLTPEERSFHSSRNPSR
Sequence of Mm_CLK2 (O35491 whole entry): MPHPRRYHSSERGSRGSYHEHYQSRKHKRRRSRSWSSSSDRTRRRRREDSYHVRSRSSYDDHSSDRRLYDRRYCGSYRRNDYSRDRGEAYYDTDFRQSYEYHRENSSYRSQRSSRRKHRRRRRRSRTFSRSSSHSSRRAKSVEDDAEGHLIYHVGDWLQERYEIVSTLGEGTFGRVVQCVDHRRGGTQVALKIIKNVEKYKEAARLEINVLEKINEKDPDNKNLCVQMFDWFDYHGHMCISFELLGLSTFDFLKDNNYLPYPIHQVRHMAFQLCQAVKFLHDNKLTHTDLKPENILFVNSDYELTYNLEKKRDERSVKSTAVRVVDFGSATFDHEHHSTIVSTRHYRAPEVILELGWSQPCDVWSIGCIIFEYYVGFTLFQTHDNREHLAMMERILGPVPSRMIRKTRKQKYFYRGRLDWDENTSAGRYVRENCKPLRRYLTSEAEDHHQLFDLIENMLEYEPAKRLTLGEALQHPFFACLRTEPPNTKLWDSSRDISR
Sequence of Hs_CDK5/p25 (Q00535 whole entry): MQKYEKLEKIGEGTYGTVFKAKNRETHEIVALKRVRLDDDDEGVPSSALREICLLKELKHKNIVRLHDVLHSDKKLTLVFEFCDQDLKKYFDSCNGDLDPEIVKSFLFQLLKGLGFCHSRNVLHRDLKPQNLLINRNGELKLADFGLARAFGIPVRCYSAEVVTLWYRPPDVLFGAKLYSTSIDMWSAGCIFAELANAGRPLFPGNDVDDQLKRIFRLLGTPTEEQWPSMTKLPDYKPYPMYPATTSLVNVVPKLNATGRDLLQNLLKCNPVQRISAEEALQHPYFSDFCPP
Sequence of Hs_CDK5/p25 (Q15078 99-307 partner limits assumed): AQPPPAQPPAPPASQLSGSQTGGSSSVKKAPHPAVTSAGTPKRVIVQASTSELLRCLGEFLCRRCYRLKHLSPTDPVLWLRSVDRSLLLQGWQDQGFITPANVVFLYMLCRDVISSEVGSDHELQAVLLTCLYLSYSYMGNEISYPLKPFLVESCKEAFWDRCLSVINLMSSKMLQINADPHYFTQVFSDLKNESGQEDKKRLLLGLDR
Sequence of Hs_CDK9/CyclinT (P50750 whole entry): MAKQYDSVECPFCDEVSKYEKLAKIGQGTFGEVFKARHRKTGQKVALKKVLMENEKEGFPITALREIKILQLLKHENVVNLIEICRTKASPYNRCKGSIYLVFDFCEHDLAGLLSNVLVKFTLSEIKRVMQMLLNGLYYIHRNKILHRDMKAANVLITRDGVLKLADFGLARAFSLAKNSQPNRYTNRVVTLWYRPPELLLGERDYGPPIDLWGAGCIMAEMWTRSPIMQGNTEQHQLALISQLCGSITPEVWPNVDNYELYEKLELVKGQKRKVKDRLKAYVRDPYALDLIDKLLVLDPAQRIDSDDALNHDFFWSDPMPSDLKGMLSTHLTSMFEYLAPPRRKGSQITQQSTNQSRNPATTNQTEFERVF
Sequence of Hs_CDK9/CyclinT (O60563 whole entry partner): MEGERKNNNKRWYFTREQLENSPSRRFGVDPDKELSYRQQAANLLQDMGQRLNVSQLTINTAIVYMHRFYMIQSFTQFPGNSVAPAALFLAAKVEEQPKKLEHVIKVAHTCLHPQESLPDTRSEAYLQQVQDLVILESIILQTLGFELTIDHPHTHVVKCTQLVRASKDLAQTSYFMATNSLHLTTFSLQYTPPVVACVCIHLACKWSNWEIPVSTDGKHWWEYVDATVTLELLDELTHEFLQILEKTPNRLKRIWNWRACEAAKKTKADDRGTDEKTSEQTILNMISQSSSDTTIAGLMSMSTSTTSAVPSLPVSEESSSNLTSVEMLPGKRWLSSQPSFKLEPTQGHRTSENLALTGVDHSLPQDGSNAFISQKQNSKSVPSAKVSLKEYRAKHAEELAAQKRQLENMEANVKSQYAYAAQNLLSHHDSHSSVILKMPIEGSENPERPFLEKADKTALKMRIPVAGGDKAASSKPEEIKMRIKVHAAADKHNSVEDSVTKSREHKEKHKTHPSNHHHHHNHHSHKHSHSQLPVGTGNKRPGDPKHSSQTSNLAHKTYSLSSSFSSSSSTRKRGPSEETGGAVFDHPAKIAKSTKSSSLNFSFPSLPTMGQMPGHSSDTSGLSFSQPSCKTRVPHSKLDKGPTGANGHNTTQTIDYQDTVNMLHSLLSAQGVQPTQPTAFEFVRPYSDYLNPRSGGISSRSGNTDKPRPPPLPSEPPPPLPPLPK

| SMILES | remaining activity at 1 µM [6] [%] | remaining activity at 10 µM [6] [%] | remaining activity at 1 µM [7] [%] | remaining activity at 10 µM [7] [%] | remaining activity at 1 µM [8] [%] | remaining activity at 10 µM [8] [%] | remaining activity at 1 µM [9] [%] | remaining activity at 10 µM [9] [%] | remaining activity at 1 µM [10] [%] | remaining activity at 10 µM [10] [%] | remaining activity at 1 µM [11] [%] | remaining activity at 10 µM [11] [%] | remaining activity at 1 µM [12] [%] | remaining activity at 10 µM [12] [%] | remaining activity at 1 µM [13] [%] | remaining activity at 10 µM [13] [%] | activity against CLK1 in primary screening [12] | IC50 [14] [nM] | Mm_CLK3/Mm_CLK1 [14] | IC50 [15] [nM] | further results |
| --- | --- | --- | --- | --- | --- | --- | --- | --- | --- | --- | --- | --- | --- | --- | --- | --- | --- | --- | --- | --- | --- |
| O=C(O)c1ccc2c(c1)nc(Nc1cccc(Cl)c1)c1ccncc12 [CX-4945] |  |  |  |  |  |  |  |  |  |  |  |  |  |  |  |  |  |  |  |  | IC50 [1]: 3.3 nM; IC50 [2]: 2.9 nM; IC50 [3]: 67 nM; IC50 [4]: 23 nM; IC50 [5]: […] |
| COC(=O)c1ccc(-c2cccc(Nc3ncc4cccc(OCc5cn(-c6ccc(C)cc6[N+](=O)[O-])nn5)c4n3)c2)cc1 [Compound 9a] | 70 | 84 | 98 | 95 | 78 | 95 | 70 | 53 | 95 | ≥ 100 | ≥ 100 | 90 | 66 | 58 | ≥ 100 | ≥ 100 |  |  |  |  |  |
| COC(=O)c1ccc(-c2cc(Cl)cc(Nc3ncc4cccc(OCc5cn(-c6ccc(C)cc6[N+](=O)[O-])nn5)c4n3)c2)cc1 [Compound 9b] | 74 | ≥ 100 | 96 | 91 | ≥ 100 | ≥ 100 | 90 | 86 | 65 | 43 | ≥ 100 | 96 | 60 | 66 | ≥ 100 | ≥ 100 |  |  |  |  |  |
| Cc1ccc(-n2cc(COc3cccc4cnc(Nc5cccc(-c6ccc(C(=O)O)cc6)c5)nc34)nn2)c([N+](=O)[O-])c1 [Compound 10a] | 61 | 70 | 84 | 38 | 93 | 84 | 82 | 32 | 93 | 92 | 80 | ≥ 100 | 15 | 0 | ≥ 100 | 84 | significant activity against CLK1 | 891 | 4.18 | 844 | Mm_CLK3/Mm_CLK2 [15]: 4.42; IC50 [16]: 762 nM; Mm_CLK3/Mm_CLK4 [16]: 4.90; IC50 [17]: 3700 nM and 3730 nM |
| Cc1ccc(-n2cc(COc3cccc4cnc(Nc5cc(Cl)cc(-c6ccc(C(=O)O)cc6)c5)nc34)nn2)c([N+](=O)[O-])c1 [Compound 10b] | 53 | 43 | 99 | 66 | ≥ 100 | 92 | 92 | 56 | 85 | 92 | 84 | ≥ 100 | 38 | 8 | 82 | 94 | significant activity against CLK1 | 213 | 4.04 | 118 | Mm_CLK3/Mm_CLK2 [15]: 7.29; IC50 [16]: 145 nM; Mm_CLK3/Mm_CLK4 [16]: 5.94; IC50 [17]: 861 nM |
| COC(=O)c1cccc(-c2cc(Cl)cc(Nc3ncc4cccc(OCc5cn(-c6ccc(C)cc6[N+](=O)[O-])nn5)c4n3)c2)c1 [Compound 12b] | 85 | 92 | 94 | 83 | ≥ 100 | ≥ 100 | 97 | 62 | 47 | 39 | 90 | 98 | 54 | 48 | ≥ 100 | ≥ 100 |  |  |  |  |  |
| Cc1ccc(-n2cc(COc3cccc4cnc(Nc5cccc(-c6cccc(C(=O)O)c6)c5)nc34)nn2)c([N+](=O)[O-])c1 [Compound 13a] | 62 | 9 | 83 | 24 | ≥ 100 | ≥ 100 | 95 | 26 | 79 | 63 | 68 | ≥ 100 | 44 | 5 | 92 | 60 | significant activity against CLK1 | 680 | 2.43 | 278 | Mm_CLK3/Mm_CLK2 [15]: 5.95; IC50 [16]: 428 nM; Mm_CLK3/Mm_CLK4 [16]: 3.87; IC50 [17]: 1660 nM |
